Test results from paper PMC7181280, “Synthesis, Structure and In Vitro Anti-Trypanosomal Activity of Non-Toxic Arylpyrrole-Based Chalcone Derivatives” (Molecules, 2020).
Where two headings read alike, the source gives them in different places.

What was measured:
[1] = tested on: Trypanosoma brucei brucei 427 trypomastigotes; assay: In vitro antitrypanosomal assay (resazurin parasite viability); assay type: cell-based; conditions: T. b. brucei 427 strain; for IC50: Trypanosoma brucei
Protocol: (§1) A single concentration (20 µM) cytotoxicity evaluation of all compounds was conducted in duplicates using a human cervix adenocarcinoma (HeLa) cell line, with emetine (EMT) included as a reference drug and cell viability relative to untreated cells assessed using resazurin. […] The anti-trypanosomal activity of prepared compounds against nagana T. b. brucei (the subspecies responsible for African trypanosomiasis in cattle) parasite cultures were determined using the T. b. brucei 427 strain. Pentamidine (PMD), which is an existing drug for the treatment of trypanosomiasis, was included as a positive control drug. The trypanocidal activity of each compound was initially assessed at a fixed concentration of 20 μM, using resazurin as a read-out of cell viability after compound exposure. […] From Table 1, the structural modification was initially performed on the arylpyrrole moiety (ring B) of the chalcones, while keeping the ring A unchanged. […] Introduction of the fluorine, highly electronegative atom, at the para-position (10b) appeared to enhance the activity against T. b. brucei; however, the activity diminished when the fluorine was replaced by chlorine (10c).
Trypanosoma brucei brucei 427 trypomastigotes were cultured in Iscove’s Modified Dulbecco’s medium (IMDM, Lonza, Basel Switzerland) and supplemented with 10% fetal calf serum, HMI-9 supplement, hypoxanthine and penicillin/streptomycin at 37 °C in a 5% CO2 incubator. Serial dilutions of test compounds were incubated with the parasites in 96-well plates for 24 h, and residual parasite viability in the wells determined by adding 20 µL resazurin toxicology reagent (Sigma-Aldrich) and incubating for an additional 24 h. Reduction of resazurin to resorufin by viable parasites was assessed by fluorescence readings (excitation 560 nm, emission 590 nm) in a Spectramax M3 plate reader (Molecular Devices, San Jose, CA, USA). Fluorescence readings were converted to % parasite viability relative to the average readings obtained from untreated control wells. IC50 values were determined by plotting % viability vs. log[compound] and performing non-linear regression using GraphPad Prism (v. 5.02) software.

[2] = In vitro cytotoxicity assay, HeLa cells (resazurin cell viability); assay type: cell-based; conditions: human
Protocol: as §1
HeLa cells (Cellonex, Johannesburg, South Africa) seeded in 96-well plates were incubated with 20 µM test compounds and cell viability assessed with resazurin, as previously described. Fluorescence readings (excitation 560 nm, emission 590 nm) obtained for the individual wells were converted to % cell viability relative to the average readings obtained from untreated control wells. Plots of % cell viability vs. log[compound] were used to determine IC50 values by non-linear regression using GraphPad Prism (v. 5.02).

[3] = 24 h compound incubation + 24 h resazurin, na = not active (cell viability ≥50% in preliminary single point assay at 20 μM)
[4] = 48 h, 24 h compound incubation + 24 h resazurin, na = not active (cell viability ≥50% in preliminary single point assay at 20 μM), read-out: T. b. brucei IC50

Row | SMILES | viability at 20 µM [2] | IC50 [1, 4] | also measured
1 | N=C(N)c1ccc(OCCCCCOc2ccc(C(=N)N)cc2)cc1 [PMD, Pentamidine, reference compound] | – | – | IC50 ([1]; read-out: T. b. brucei IC50 (positive control drug)): 0.00068 µM
2 | COc1ccc(-n2c(C)cc(/C=C/C(=O)c3cc(Br)ccc3O)c2C)cc1 [Compound 10j, (E)-1-(5-Bromo-2-hydroxyphenyl)-3-(1-(4-methoxyphenyl)-2,5-dimethyl-1H-pyrrol-3-yl)prop-2-en-1-one] | > 100% | – | T. b. brucei IC50 [1, 3]: no activity
3 | Cc1cc(/C=C/C(=O)c2cc(Br)ccc2O)c(C)n1-c1ccccc1C(F)(F)F [Compound 10g, (E)-1-(5-Bromo-2-hydroxyphenyl)-3-(2,5-dimethyl-1-(2-(trifluoromethyl)phenyl)-1H-pyrrol-3-yl)prop-2-en-1-one] | > 100% | 10 µM | –
4 | COc1ccc(C(=O)/C=C/c2cc(C)n(-c3ccc([N+](=O)[O-])cc3)c2C)c(OC)c1 [Compound 16, (E)-1-(2,4-Dimethoxyphenyl)-3-(2,5-dimethyl-1-(4-nitrophenyl)-1H-pyrrol-3-yl)prop-2-en-1-one] | > 100% | 10.6 µM | –
5 | Cc1cc(/C=C/C(=O)c2cc(Br)ccc2O)c(C)n1-c1cccc([N+](=O)[O-])c1 [Compound 10i, (E)-1-(5-bromo-2-hydroxyphenyl)-3-(2,5-dimethyl-1-(3-nitrophenyl)-1H-pyrrol-3-yl)prop-2-en-1-one] | 51.2% | < 10 µM | –
6 | COc1ccc(C(=O)/C=C/c2cc(C)n(-c3ccc([N+](=O)[O-])cc3)c2C)cc1 [Compound 15, (E)-3-(2,5-Dimethyl-1-(4-nitrophenyl)-1H-pyrrol-3-yl)-1-(4-methoxyphenyl)prop-2-en-1-one] | 98.9% | 12.3 µM | melting point: 157 to 158 °C
7 | Cc1cc(/C=C/C(=O)c2ccc(F)cc2)c(C)n1-c1ccc([N+](=O)[O-])cc1 [Compound 14, (E)-3-(2,5-Dimethyl-1-(4-nitrophenyl)-1H-pyrrol-3-yl)-1-(4-fluorophenyl)prop-2-en-1-one] | 99.4% | 36.5 µM | melting point: 160 to 164 °C
8 | Cc1cc(/C=C/C(=O)c2cc(Br)ccc2O)c(C)n1-c1ccc(C(F)(F)F)cc1 [Compound 10f, (E)-1-(5-Bromo-2-hydroxyphenyl)-3-(2,5-dimethyl-1-(4-(trifluoromethyl)phenyl)-1H-pyrrol-3-yl)prop-2-en-1-one] | > 100% | 11.4 µM | –
9 | Cc1cc(/C=C/C(=O)c2cc(Cl)ccc2O)c(C)n1-c1cccc([N+](=O)[O-])c1 [Compound 19, (E)-1-(5-Chloro-2-hydroxyphenyl)-3-(2,5-dimethyl-1-(3-nitrophenyl)-1H-pyrrol-3-yl)prop-2-en-1-one] | 81.2% | 11.7 µM | –
10 | Cc1cc(/C=C/C(=O)c2cc(Br)ccc2O)c(C)n1-c1ccc(Br)cc1 [Compound 10d, (E)-1-(5-Bromo-2-hydroxyphenyl)-3-(1-(4-bromophenyl)-2,5-dimethyl-1H-pyrrol-3-yl)prop-2-en-1-one] | > 100% | 10.5 µM | –
11 | Cc1cc(/C=C/C(=O)c2cc(Cl)ccc2O)c(C)n1-c1cccc(C(F)(F)F)c1 [Compound 18, (E)-1-(5-Chloro-2-hydroxyphenyl)-3-(2,5-dimethyl-1-(3-(trifluoromethyl)phenyl)-1H-pyrrol-3-yl)prop-2-en-1-one] | 79.9% | 9.3 µM | –
12 | Cc1cc(/C=C/C(=O)c2cc(Br)ccc2O)c(C)n1-c1cccc(C(F)(F)F)c1 [Compound 10e, (E)-1-(5-Bromo-2-hydroxyphenyl)-3-(2,5-dimethyl-1-(3-(trifluoromethyl)phenyl)-1H-pyrrol-3-yl)prop-2-en-1-one] | > 100% | 4.09 µM | –
13 | Cc1cc(/C=C/C(=O)c2cc(Br)ccc2O)c(C)n1C1CCCCC1 [Compound 10l, (E)-1-(5-Bromo-2-hydroxyphenyl)-3-(1-cyclohexyl-2,5-dimethyl-1H-pyrrol-3-yl)prop-2-en-1-one] | 99.2% | 11.5 µM | –
14 | Cc1cc(/C=C/C(=O)c2cc(Br)ccc2O)c(C)n1-c1ccc(Cl)cc1 [Compound 10c, (E)-1-(5-Bromo-2-hydroxyphenyl)-3-(1-(4-chlorophenyl)-2,5-dimethyl-1H-pyrrol-3-yl)prop-2-en-1-one] | > 100% | 40 µM | –
15 | O=C(/C=C/c1c[nH]cn1)c1cc(Br)ccc1O [Compound 11a, (E)-1-(5-Bromo-2-hydroxyphenyl)-3-(1H-imidazol-4-yl)prop-2-en-1-one] | 78.1% | – | T. b. brucei IC50 [1, 3]: no activity
16 | Cc1cc(/C=C/C(=O)c2cc(Br)ccc2O)c(C)n1-c1ccccc1 [Compound 10a, (E)-1-(5-Bromo-2-hydroxyphenyl)-3-(2,5-dimethyl-1-phenyl-1H-pyrrol-3-yl)prop-2-en-1-one] | > 100% | 11.5 µM | –
17 | Cc1ccc(C(=O)/C=C/c2cc(C)n(-c3ccc([N+](=O)[O-])cc3)c2C)cc1 [Compound 13, (E)-3-(2,5-Dimethyl-1-(4-nitrophenyl)-1H-pyrrol-3-yl)-1-(p-tolyl)prop-2-en-1-one] | > 100% | 44.3 µM | melting point: 172 to 173 °C
18 | Cc1cc(/C=C/C(=O)c2ccccc2)c(C)n1-c1ccc([N+](=O)[O-])cc1 [Compound 12, (E)-3-(2,5-Dimethyl-1-(4-nitrophenyl)-1H-pyrrol-3-yl)-1-phenylprop-2-en-1-one] | 84.7% | – | melting point: 169 to 174 °C
19 | CC[C@H]1CN2CCc3cc(OC)c(OC)cc3[C@@H]2C[C@@H]1C[C@H]1NCCc2cc(OC)c(OC)cc21 [EMT, emetine, reference compound] | – | – | IC50 ([2]; HeLa cells, resazurin, read-out: HeLa cytotoxicity of reference drug (printed in the %Viability column with unit μM)): 0.76 µM
20 | Cc1cc(/C=C/C(=O)c2cc(Br)ccc2O)c(C)n1-c1ccc([N+](=O)[O-])cc1 [Compound 10h, (E)-1-(5-Bromo-2-hydroxyphenyl)-3-(2,5-dimethyl-1-(4-nitrophenyl)-1H-pyrrol-3-yl)prop-2-en-1-one] | > 100% | < 6 µM | –
21 | Cc1cc(/C=C/C(=O)c2ccc([N+](=O)[O-])cc2)c(C)n1-c1ccc([N+](=O)[O-])cc1 [Compound 17, (E)-3-(2,5-Dimethyl-1-(4-nitrophenyl)-1H-pyrrol-3-yl)-1-(4-nitrophenyl)prop-2-en-1-one] | – | – | viability at 20 µM ([2]; single concentration 20 µM, duplicates, relative to untreated cells, read-out: HeLa %Viability (residual percentage viability)): > 100%; melting point: 175 to 178 °C
22 | Cc1cc(/C=C/C(=O)c2cc(Br)ccc2O)c(C)n1-c1ccc(F)cc1 [Compound 10b, (E)-1-(5-Bromo-2-hydroxyphenyl)-3-(1-(4-fluorophenyl)-2,5-dimethyl-1H-pyrrol-3-yl)prop-2-en-1-one] | > 100% | 6.9 µM | –
23 | Cc1cc(/C=C/C(=O)c2cc(Br)ccc2O)c(C)[nH]1 [Compound 10k, (E)-1-(5-Bromo-2-hydroxyphenyl)-3-(2,5-dimethyl-1H-pyrrol-3-yl)prop-2-en-1-one] | > 100% | – | T. b. brucei IC50 [1, 3]: complete loss of activity
24 | COc1ccc2nc(Cl)c(/C=C/C(=O)c3cc(Br)ccc3O)cc2c1 [Compound 11b] | 99.3% | 9.1 µM | –
